*1 amine or outer side, *2 acyl side, *3 side chain or, on linkers, in order; H or OH if unused. Where a SMILES comes first, the peptide text is derived from it. Bridges are numbered along the chain shown (N, C = ends). Where no end group is shown, it is not given here. X1 = O=C(CCC[*:2])[*:1]

The subject of data set [1] is aminopeptidase and disulphidase. The following applies: cited from earlier work.
For data set [2] the following is noted: cited from earlier work.
The target of data set [3] is T1, human oxytocin receptor (hOXTR) (Homo sapiens, UniProt P30559). The following applies: carbetocin vs oxytocin.
The target in data set [4] is T1, human oxytocin receptor (hOXTR). The experiment in a line: cell-based. The conditions noted are these: HEK293, read-out: maximal activation (BRETmax) relative to oxytocin.
On the set-up of data set [5]: method as in PMID 6831225. The conditions noted are these: cited from earlier work.
Details of data set [6]: method as in PMID 6831225. The conditions noted are these: parenteral administration; cited from earlier work.
For data set [7], the system named is human vasopressin V1a receptor (V1aR). The experiment in a line: BRET2 G-protein activation at V1aR in HEK293 cells. The following applies: 10 μM ligand, 2 min, Gq, Gi1, Gi2, Gi3, Go, minimum of three experiments. Format: cell-based. The source says: (A) V1aR or (B) V1bR were transfected together with GFP10‐Gγ2, Gβ1 and different Rluc8‐tagged Gα subunits: Gq, Gi1, Gi2, Gi3, Go.

The test system of data set [8] is human vasopressin V1b receptor (V1bR). Kind of data set: BRET2 G-protein activation at V1bR in HEK293 cells. The following applies: 10 μM ligand, 2 min, Gq, Gi1, Gi2, Gi3, Go, minimum of three experiments.
The next data set has as its system OXTR. The conditions noted are these: cited from earlier work.
Data set [9] addresses T1, human oxytocin receptor (hOXTR).
Data set [10] relates to somatostatin receptor (SST2R). Further details: method as in PMID 25012983. The conditions noted are these: functioning gastroenteropancreatic neuroendocrine tumours; cited from earlier work.
Data set [11] concerns the target T2, human oxytocin receptor fused to Renilla luciferase (hOXTR‐Rluc) (human, UniProt P30559 1-389).
T2 construct: oxytocin receptor, human; Rluc introduced at the C-terminus; source: HEK293, transfected (PEI), in living cells; not shown: Rluc (Renilla luciferase), C-terminal, kept
T2 sequence (looked up): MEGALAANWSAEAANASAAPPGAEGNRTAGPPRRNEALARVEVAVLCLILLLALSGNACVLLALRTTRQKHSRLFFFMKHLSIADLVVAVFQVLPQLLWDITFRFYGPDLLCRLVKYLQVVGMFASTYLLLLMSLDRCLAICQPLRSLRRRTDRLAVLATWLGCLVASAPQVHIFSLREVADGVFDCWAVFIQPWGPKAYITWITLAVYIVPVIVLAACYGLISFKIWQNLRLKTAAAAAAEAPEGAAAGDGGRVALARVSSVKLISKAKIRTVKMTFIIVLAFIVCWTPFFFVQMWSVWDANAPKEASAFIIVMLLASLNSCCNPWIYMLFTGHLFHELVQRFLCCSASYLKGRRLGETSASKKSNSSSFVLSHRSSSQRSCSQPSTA
Kind of data set: FRET or BRET; kinetic BRET1 in HEK293 cells co-transfected with hOXTR-Rluc (donor) and β-arrestin1- or β-arrestin2-Venus (acceptor); cells in PBS with 0.1% glucose at room temperature; coelenterazine h added 8 min before oxytocin (10 μM); read in real time for 5 min. The following applies: partners not purified. For orientation: BRET reads energy transfer from a luciferase to a nearby fluorophore.

For `CC[C@H](C)[C@@H]1NC(=O)[C@H](Cc2ccc(OC)cc2)NC(=O)CCCSC[C@@H](C(=O)N2CCC[C@H]2C(=O)N[C@@H](CC(C)C)C(=O)NCC(N)=O)NC(=O)[C@H](CC(N)=O)NC(=O)[C@H](CCC(N)=O)NC1=O` [carbetocin, deamino‐1‐monocarba‐(2‐O‐methyltyrosine)‐oxytocin] (Y(Me)IQNCPLG-NH2; linker N-5 via X1), the “protection from aminopeptidase degradation and disulphidase cleavage” value in data set [1] was “very effective protection of carbetocin from aminopeptidase degradation and disulphidase cleavage”. Also, the “half-life in the peripheral circulation” value in data set [2] is 85 to 100 min. For the same molecule, in [3], the “reduction in maximal OXTR/Gq activation compared to oxytocin” value was found to be 50%. Moreover, the Emax in data set [4] came to 45 ± 6%.

As to `CC[C@H](C)[C@@H]1NC(=O)[C@H](Cc2ccc(O)cc2)NC(=O)[C@@H](N)CSSC[C@@H](C(=O)N2CCC[C@H]2C(=O)N[C@@H](CC(C)C)C(=O)NCC(N)=O)NC(=O)[C@H](CC(N)=O)NC(=O)[C@H](CCC(N)=O)NC1=O` [oxytocin], the “half-life in the cerebrospinal fluid” value in data set [5] is given as “short half‐life”. In data set [2], the “half-life in the peripheral circulation” value was 3.4 min and the “half-life in the plasma” value is given as “short half‐life in the plasma”. In [6], the blood-brain barrier crossing entry is on record as “does not cross the blood–brain barrier in a significant amount”.

As for “arginine vasopressin: neuropeptide arginine vasopressin, obtained from Bachem (CYFQNCPRG; not fully specified (C-terminus, bridges); cysteine pairing not given here; UniProt P01185 20-28, looked up)”, the “V1aR activation, all G-proteins tested” value in [7] is “significantly promoted the coupling/activation”. The “V1bR activation, all G-proteins tested” value in data set [8] is “significantly promoted the coupling/activation”.

On to atosiban, for which the G-protein functional selectivity result with OXTR is reported as “a Gi3 functional selective agonists”.

In data set [9], “carbetocin (deamino‐1‐monocarba‐(2‐O‐methyltyrosine)‐oxytocin) (peptide)” yielded an EC50 of Gq activation (BRET2 between Gαq-Rluc8 and GFP10-Gγ2) in HEK293 cells expressing hOXTR, 10^-13 to 10^-5 M, 2 min of 48.8 nM; a maximal activation (BRETmax) of the Gq biosensor in HEK293 cells expressing hOXTR, against that of oxytocin (% of oxytocin) of 45.

Regarding octreotide, the “antisecretory potency on long-term treatment” value in data set [10] is reported as “antisecretory potency decreased with long‐term treatment as a consequence of the persistent internalisation of SST2R”.

B1: β‐arrestin1‐Venus (natural protein, UniProt P49407 1-418, looked up)
chain: MGDKGTRVFKKASPNGKLTVYLGKRDFVDHIDLVDPVDGVVLVDPEYLKERRVYVTLTCAFRYGREDLDVLGLTFRKDLFVANVQSFPPAPEDKKPLTRLQERLIKKLGEHAYPFTFEIPPNLPCSVTLQPGPEDTGKACGVDYEVKAFCAENLEEKIHKRNSVRLVIRKVQYAPERPGPQPTAETTRQFLMSDKPLHLEASLDKEIYYHGEPISVNVHVTNNTNKTVKKIKISVRQYADICLFNTAQYKCPVAMEEADDTVAPSSTFCKVYTLTPFLANNREKRGLALDGKLKHEDTNLASSTLLREGANREILGIIVSYKVKVKLVVSRGGLLGDLASSDVAVELPFTLMHPKPKEEPPHREVPENETPVDTNLIELDTNDDDIVFEDFARQRLKGMKDDKEEEEDGTGSPQLNNR
notes: β-arrestin1; Venus (yellow variant of GFP) fused to its C-terminus; vector provided by Professor M. Locati; source: HEK293, transfected (PEI), in living cells; not shown: Venus, C-terminal, kept
As for B1, the “t1/2 of the oxytocin-induced increase of the BRET ratio” value in data set [11] is 1.98 min.

These data come from article PMC5021139 (Journal of Neuroendocrinology, 2016).
